{"source": "patent US5670520A", "about": "“Method for inhibiting virus replication in mammalian cells using carbostyil derivatives” (Otsuka Pharmaceutical Co., Ltd., priority 1996, dated 1997)", "key": {"EBV": {"test_system": "EBV", "assay": "Productive replication of EBV in growing Akata cells (in situ hybridization)", "assay_type": "cell-based, Epstein-Barr virus", "conditions": "for positivity for EBV DNA: 20 μg/ml vesnarinone", "method": "1 hr later, anti-IgG was added to the cultures at a final concentration of 50 μg/ml, and the cells were harvested for in situ hybridization of EBV DNA 24 hrs later as described above."}, "U937 cells": {"test_system": "U937 cells", "assay": "Intracellular phosphorylated AZT in U937 cells (DEAE filter)", "conditions": "0-250 μM vesnarinone or 0-100 nM dipyridamole; 2 hr"}, "CHO cells": {"test_system": "CHO cells", "assay": "[3H]adenosine / [3H]adenine transport in CHO cells", "conditions": "0-750 μM vesnarinone or 0-100 μM dipyridamole, 1 min pulse"}, "human T cells [1]": {"test_system": "human T cells", "assay": "[3H]thymidine incorporation by PHA-stimulated human T cells", "assay_type": "cell-based", "conditions": "10 μg/ml PHA 48 hrs, 0-250 μM vesnarinone, 6 hrs pulse", "method": "More specifically, human primary T cells were separated from peripheral blood obtained by leukopheresis of healthy donors. Mononuclear cell suspensions were prepared by Ficoll-Hypaque gradient centrifugation, and T cells were obtained by E-rosette enrichment as described by Kumagai et al, J. Cell. Physiol., 137:329 (1988).\nThen, 1.0 μCi of [^3 H]thymidine (6.7 Ci/mmole, ICN), was added to 2.0×10^6 cells (100 μl), and the cells were pulse-labeled for 6 hrs."}, "E. coli DNA polymerase I": {"target": "T1, E. coli DNA polymerase I (Escherichia coli, UniProt P00582)", "T1 construct": "purchased Boehringer Mannheim", "T1 sequence (P00582 whole entry)": "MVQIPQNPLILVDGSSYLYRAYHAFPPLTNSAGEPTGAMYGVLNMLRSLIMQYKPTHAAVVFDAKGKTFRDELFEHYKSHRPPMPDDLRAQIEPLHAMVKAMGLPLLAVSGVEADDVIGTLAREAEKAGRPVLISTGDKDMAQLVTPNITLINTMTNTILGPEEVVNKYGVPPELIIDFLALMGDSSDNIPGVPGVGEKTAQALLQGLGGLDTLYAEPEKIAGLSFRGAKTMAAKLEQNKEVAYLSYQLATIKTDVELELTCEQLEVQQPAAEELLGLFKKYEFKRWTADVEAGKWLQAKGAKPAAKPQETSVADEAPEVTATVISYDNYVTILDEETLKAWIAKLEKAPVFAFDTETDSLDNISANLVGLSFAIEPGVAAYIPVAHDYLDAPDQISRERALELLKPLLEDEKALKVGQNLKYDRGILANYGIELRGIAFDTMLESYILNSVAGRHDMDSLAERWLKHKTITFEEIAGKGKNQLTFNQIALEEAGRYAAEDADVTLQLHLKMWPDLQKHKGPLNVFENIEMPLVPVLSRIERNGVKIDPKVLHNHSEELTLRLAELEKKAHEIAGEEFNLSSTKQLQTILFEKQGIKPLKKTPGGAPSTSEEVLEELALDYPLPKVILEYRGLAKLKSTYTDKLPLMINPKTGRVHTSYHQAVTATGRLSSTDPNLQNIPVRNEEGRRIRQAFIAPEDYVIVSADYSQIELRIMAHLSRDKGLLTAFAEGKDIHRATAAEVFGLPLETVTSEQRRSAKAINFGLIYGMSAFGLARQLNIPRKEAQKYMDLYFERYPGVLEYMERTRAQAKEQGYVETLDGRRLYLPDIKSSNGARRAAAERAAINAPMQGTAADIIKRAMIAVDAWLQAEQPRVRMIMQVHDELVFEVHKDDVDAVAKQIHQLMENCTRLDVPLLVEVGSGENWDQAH", "assay": "In vitro DNA polymerase assay", "assay_type": "biochemical", "conditions": "vesnarinone up to 100 μg/ml"}, "[2]": {"test_system": "nucleoside and nucleobase transport in human T cells", "assay": "[3H]nucleoside / [3H]nucleobase transport, 1 min pulse, T cells", "assay_type": "cell-based", "conditions": "250 μM vesnarinone, 100 μM deferoxamine, 15 nM aphidicolin or 1.0 μM dipyridamole"}, "human T cells [3]": {"test_system": "human T cells", "assay": "Cell numbers of PHA-stimulated human T cells over 120 hrs", "assay_type": "cell-based", "conditions": "10 μg/ml PHA, 0-120 hrs; 250 μM vesnarinone, 15 nM aphidicolin or 100 μM deferoxamine", "method": "Next, the effects of the above-described drugs on cell proliferation were evaluated over a period of 120 hrs."}, "MRC5 cells": {"test_system": "MRC5 cells", "assay": "MTT cell viability of MRC5 cells", "assay_type": "cell-based", "method": "(§1) More specifically, 5.0 μg/ml of MTT in Eagles MEM supplemented with 2.0% (v/v) fetal bovine serum was added to each well, and incubated at 37° C. for 6 hr. The cells were then solubilized by adding 30% (w/v) SDS in 0.02N HCl. The cultures were incubated overnight at 37° C. Then, the optical density was measured at 570 nm on a spectrophotometer."}, "[4]": {"assay": "MTT cell viability of MRC5 cells", "assay_type": "cell-based", "conditions": "human, mrc5 cells, read-out: MTT Cell Viability (% of control)", "method": "as §1"}, "thymidine kinase": {"test_system": "thymidine kinase", "assay": "Thymidine kinase assay, vesnarinone added in vitro", "assay_type": "biochemical", "conditions": "vesnarinone up to 100 μg/ml", "method": "5.0 μl of the kinase extract was incubated at 37° C. with 35 µl of kinase reaction buffer comprising 150 mM phosphate (pH 7.5), 20 mM ATP, 20 mM MgCl2, 40 mM KCl, 1.0 mM DTT, 10 mM NaF and 20 μM [^3 H]thymidine (6.7 Ci/mmole, ICN) for 5 or 15 min. The reaction was terminated by placing on ice, and an addition of 4.0 μl of 0.5M EDTA (pH 8.0). For measurement of dTTP-resistant thymidine kinase activity, a kinase reaction buffer additionally containing 100 μM dTTP (Pharmacia) was used.\nThe amount of phosphorylated [^3 H]thymidine derivatives formed during the reaction was determined by applying the reaction mixtures onto Whatman DE-81 paper filters, which were then washed four times in 1.0 mM ammoniumformate (pH 8.0), and once in ethanol before drying and liquid scintillation counting."}, "EBNA2, LMP1, bcl-2": {"test_system": "EBNA2, LMP1, bcl-2", "assay": "Western blot of EBNA2, LMP1 and bcl-2 in Burkitt's lymphoma cell lines", "assay_type": "cell-based, human", "conditions": "20 μg/ml vesnarinone 7 days", "excerpt": "The cell lines included Akata (type A, group I), Raji (type A, group III), P3HR1 (type B, group I) (ATCC No. HTB-62), and Jijoye (type B, group III) (ATCC No. CCL-87). The molecules examined were a latent nuclear protein, EBNA2, a latent membrane protein, LMP1, and an anti-apoptotic host component, bcl-2. […] These differences between the two phenotypes have been related to the sensitivity to induce apoptosis, and the ability to induce the productive phase of EBV infection (Henderson et al, Cell, 65:1107-1115 (1991); and Gregory et al, Nature, 349:612-614 (1991)).\nFor detection of EBNA2, LMP1, and bcl-2, the mouse monoclonal anti-EBNA2 (PE2, Accurate, Westbury, N.Y.) (Young et al, N. Engl. J. Med., 321:1080-1085 (1989)), the mouse monoclonal anti-LMP1 (S12, provided by Dr. David A. Thorley-Lawson) (Mann et al, J. Virol., 55:710-720 (1985)), and the monoclonal anti-bcl-2 (bcl-2/124, Accurate) (Pezzella et al, Am. J. Pathol., 137:225-232 (1990)), respectively, were used. The ECL chemiluminescence method was used for the detection of these proteins."}, "[5]": {"test_system": "primary human T lymphocytes", "assay": "Rapid uptake of [3H]thymidine / [3H]AZT in PHA-activated human T cells", "conditions": "0-250 μM vesnarinone, 1 min", "protocol": "Human PBMC were obtained by leukopheresis of HIV-1 and HBV Zeronegative healthy donors. Mononuclear cell suspensions were prepared therefrom by Ficoll-Hypaque gradient centrifugation, and the T cells were obtained therefrom by E-rosette enrichment as described by Terada et al, J. Immunol., 147:698-704 (1991).\nThen, 1.0 μCi/ml of [^3 H]thymidine (6.7 Ci/mmol) or 1.0 μCi/ml of [^3 H]AZT (14 Ci/mmol) was added, and the mixture was immediately layered on silicone oil/paraffin oil (96:6) in microfuge tubes. […] The water and oil phases were discarded, and radioactivity of the cell pellets was measured using liquid scintillation counting."}, "human T cells [6]": {"test_system": "human T cells", "assay": "Cellular DNA content by flow cytometry (propidium iodide)", "assay_type": "cell-based", "conditions": "within 48 hrs; 250 μM vesnarinone, 15 nM aphidicolin or 100 μM deferoxamine", "method": "Next, cellular DNA content was evaluated over the 0-120 hrs treatment period. More specifically, 10^6 T cells treated in the same manner as described above, were fixed with 70% (v/v) ethanol at 4° C. overnight, centrifuged and washed with phosphate buffered saline (PBS). The fixed cells were incubated with 0.5 ml of 0.25 mg/ml ribonuclease (Sigma, St. Louis, Mo.) in PBS at 37° C. for 10 min. The cell suspension was mixed with 0.5 ml of a 50 μg/ml propidium iodide (Calbiochem, La Jolla, Calif.) solution in PBS, and after 60 min analyzed by flow cytometry (EPICS Profile, Coulter, Hialeah, Fla.), collecting red fluorescence (>600 nm) with 488 nm excitation."}}, "note": "Like-named read-outs stand apart in the source and are kept apart here.", "data": [{"molecule": "COc1ccc(C(=O)N2CCN(c3ccc4c(c3)CCC(=O)N4)CC2)cc1OC", "note": "[vesnarinone, 3,4-dihydro-6-[4-(3,4-dimethoxybenzoyl)-1-piperazinyl]-2(1H)-quinoline]", "values": [{"measurement": "EBV production", "setting": "EBV; 20 μg/ml vesnarinone only concurrently with anti-IgG treatment", "value": "displayed a more profound reduction of EBV production"}, {"measurement": "positivity for EBV DNA", "setting": "EBV; pre-treatment alone (7 days)", "value": "the degree of positivity for EBV DNA was higher"}, {"measurement": "positivity for EBV DNA", "setting": "EBV; pre-treatment+post-treatment or solely post-treatment", "value": "reduced the level of positivity for EBV DNA compared to untreated cells"}, {"measurement": "intracellular concentration of phosphorylated AZT", "setting": "U937 cells", "value": "increased the concentration of phosphorylated AZT in U937 cells in a dose-dependent manner"}, {"measurement": "[3H]adenosine and [3H]adenine transport", "setting": "CHO cells", "value": "inhibitory effects on nucleoside and nucleobase transport in vitro were observed within the therapeutic range"}, {"measurement": "[3H]thymidine incorporation into DNA", "setting": "human T cells [1]", "value": "inhibits [^3 H]thymidine incorporation into DNA in a dose-dependent manner"}, {"measurement": "effect on in vitro DNA polymerase assay", "setting": "E. coli DNA polymerase I", "value": "has no effect on the measurement of dNTP contents in this in vitro DNA polymerase assay"}, {"measurement": "transport of [3H]thymidine, [3H]adenosine, [3H]adenine, [3H]uracil", "setting": "[2]", "value": "inhibited transportation of [^3 H]thymidine, [^3 H]adenosine, [^3 H]adenine, and also to a lesser extent, [^3 H]uracil"}, {"measurement": "cell proliferation (cell number)", "setting": "human T cells [3]", "value": "inhibited cell proliferation when compared to control cultures, but increases in cell number were nonetheless observed"}, {"measurement": "MTT Cell Viability (% of control)", "setting": "MRC5 cells; vesnarinone 3.88 μg/ml alone", "value": "100 % of control"}, {"measurement": "MTT Cell Viability (% of control)", "setting": "MRC5 cells; vesnarinone 7.75 μg/ml alone", "value": "98 % of control"}, {"measurement": "MTT Cell Viability (% of control)", "setting": "MRC5 cells; vesnarinone 15.5 μg/ml alone", "value": "98 % of control"}, {"measurement": "MTT Cell Viability (% of control)", "setting": "MRC5 cells; vesnarinone 31 μg/ml alone", "value": "90 % of control"}, {"measurement": "cytotoxicity by MTT", "setting": "MRC5 cells; vesnarinone 3.88-31 μg/ml, alone or with DHPG 0.625-5.000 μM", "value": "little or no cytotoxicity was observed"}, {"measurement": "viability", "setting": "[4]; vesnarinone 3.88 μg/ml alone", "value": 100, "unit": "%"}, {"measurement": "viability", "setting": "[4]; vesnarinone 7.75 μg/ml alone", "value": 98, "unit": "%"}, {"measurement": "viability", "setting": "[4]; vesnarinone 15.5 μg/ml alone", "value": 98, "unit": "%"}, {"measurement": "viability", "setting": "[4]; vesnarinone 31 μg/ml alone", "value": 90, "unit": "%"}, {"measurement": "thymidine kinase activity, drug added to in vitro assay", "setting": "thymidine kinase", "value": "did not display any inhibition of the thymidine kinase activity"}, {"measurement": "expression of EBNA2, LMP1, bcl-2", "setting": "EBNA2, LMP1, bcl-2; group I lines (Akata, P3HR1)", "value": "did not induce these molecules in the group I lines"}, {"measurement": "expression of EBNA2, LMP1, bcl-2", "setting": "EBNA2, LMP1, bcl-2; group III lines (Raji, Jijoye)", "value": "nor did the vesnarinone alter levels of expression of these molecules in the group III lines"}, {"measurement": "uptake of [3H]AZT", "setting": "[5]", "value": "the uptake of [^3 H]AZT was not affected by vesnarinone"}, {"measurement": "uptake of [3H]thymidine", "setting": "[5]", "value": "inhibits the uptake of [^3 H]thymidine in a dose-dependent manner"}, {"measurement": "entry into S and G2/M phases (cellular DNA content)", "setting": "human T cells [6]", "value": "a certain proportion of the cells entered both S and G2/M phases of the cell cycle"}]}]}
